{"source": "patent US20250283050A1", "about": "“METHOD OF CANCER TREATMENT” (priority 2021, published 2025)", "key": {"PDAC": {"tested_on": "PDAC", "experiment": "en bloc tumor culture with chemotherapeutic agent and Hom-1-TAMs: PDAC", "assay_type": "cell-based", "conditions": "agent plus Hom-1-TAMs", "experimental": "(§1) Besides CRC, Hom-1-TAMs reverse immune polarity of PDAC and NSCLC TME (data not shown). The effects of Hom-1-TAM on tumoricidal effects of DOX were further explored on other tumor types, such as PDAC, NSLC, esophageal cancer and stomach cancers.\n(§2) Additional chemo-reagents used in this study are listed below.\n(§3) Tumor tissue were washed with 1×PBS buffer plus antibiotics and then cut into 0.5 cm pieces. Tissues were cultured in 2 mL of RPMI 1640 medium, supplemented with 2-10% FBS (Sigma) and 1% antibiotic-antimycotic solution (Gibco) in 24-well plate (Corning). The cultures were incubated at a 37° C., 5% CO2 incubator. […] To evaluate the effect of chemotherapeutic agents, chemo-reagents at indicated concentration or PBS was used instead of the anti-PD-1 antibody. For en bloc tissue and macrophage co-culture assay, 0.25×10^6 GFP-Hom-1 or control GFP transfected autologous macrophages of the same patient were added to the en bloc tissue culture wells. After gently shaking, the plate was incubated at 37° C., 5% CO2 for 3-5 days. The en bloc tissues were then subjected to single 1 cell isolation and analysis as described."}, "ovarian cancer": {"tested_on": "ovarian cancer", "experiment": "en bloc tumor culture with chemotherapeutic agent and Hom-1-TAMs: ovarian cancer", "assay_type": "cell-based", "conditions": "agent plus Hom-1-TAMs", "experimental": "as §2, §3"}, "stomach cancer": {"tested_on": "stomach cancer", "experiment": "en bloc tumor culture with chemotherapeutic agent and Hom-1-TAMs: stomach cancer", "assay_type": "cell-based", "conditions": "agent plus Hom-1-TAMs", "experimental": "as §1, §2, §3"}, "primary human NSCLC": {"tested_on": "primary human NSCLC", "experiment": "individual NSG-PDX models of primary human NSCLC", "assay_type": "in vivo, NSG mice", "conditions": "infusion of PD-1 antibody alone", "description": "Specifically, individual NSG-PDX models of primary NSCLC were generated by engrafting small pieces of primary NSCLC tissues into subcutaneous space on the dorsal lateral side of NSG mice.\nIndividual NSG-PDX models of primary human lung cancers were developed according to standard procedure. All animal experiments were approved by the Institutional Animal Care and Use Committee. Briefly, 8-week-old NOD.Cg-Prkdc^scid Il2rg^tm1Wjl/SzJ mice (commonly known as NOD scid gamma, or NSG mice) were purchased from the Jackson Laboratory and maintained under specific pathogen-free conditions. NSCLC tumors were cut into around 0.5 cm pieces and then surgically implanted into subcutaneous space on the dorsal side of NSG mice. […] The tumor growth was monitored twice weekly and measured by a caliper for 6 weeks. Tumor volumes were calculated according to the formula ½ (length×width^2)."}, "[1]": {"tested_on": "TAMs and Treg in NSCLC-TME", "experiment": "en bloc NSCLC culture: effects of PD-1 antibody on TAMs and Treg (FACS, qRT-PCR of Hom-1)", "assay_type": "cell-based, human", "conditions": "1 μg/mL Pembrolizumab, 48 hours", "experimental": "The effects of the treatment on TAMs were determined by FACS analysis of cell surface expression of CD68 and CD206 and qRT-PCR analysis of Hom-1 expression levels.\nTotal RNA was isolated by the TRIzol reagent (Life Technologies) and RNA amounts were measured by NanoDrop 2000 (Thermo Scientific). Equal amount of RNA was used for first-strand cDNA synthesis with SuperScript III First-Strand Synthesis System (Life Technologies) according to the manufacturer's protocol. The AccuPrime Taq DNA polymerase system (Life Technologies) was used to amplify Hom-1 cDNA with conventional PCR. Quantitative measurements of Hom-1 and other cDNA were carried out with SYBR Green, using a Mastercycler ep Gradient S (Eppendorf). GAPDH was used as a house keeping gene to normalize mRNA expression. Relative expression profiles of mRNAs were calculated using the comparative Ct method (DDCT method).\nTumor tissue were washed with 1×PBS buffer plus antibiotics and then cut into 0.5 cm pieces. Tissues were cultured in 2 mL of RPMI 1640 medium, supplemented with 2-10% FBS (Sigma) and 1% antibiotic-antimycotic solution (Gibco) in 24-well plate (Corning). The cultures were incubated at a 37° C., 5% CO2 incubator. […] To evaluate the effect of chemotherapeutic agents, chemo-reagents at indicated concentration or PBS was used instead of the anti-PD-1 antibody. […]"}, "CD8 T cells in NSCLC-TME": {"tested_on": "CD8 T cells in NSCLC-TME", "experiment": "en bloc NSCLC culture: PD-1 antibody activation of CD8 T cells (FACS and ELISA of IL-2, IFN-γ)", "assay_type": "cell-based, human", "experimental": "Tumor infiltrating T (TIL) cells and TAMs were then isolated, and their functional status were determined by FACS analysis.\nSingle cell suspensions were then generated and stained with FITC conjugated anti-CD8 antibody. The cells were then fixed, permeabilized, stained with PE-conjugated anti-IL2, or anti-IFNy antibodies and analyzed by a flow cytometry.\nThe culture media were collected after 48 hours. The levels of IL-2, and IFN-γ were quantified using ELISA kits, and statistical significance was determined by a two-way ANOVA analysis.\nLevels of IL-1B, IL-2, IFN-γ and TNF-α were quantified using ELISA kits obtained from eBiosciences. Analyses were conducted according to the manufacturer's instructions. Triplicate wells were plated for each condition.\nas §3, with “After gently shaking, the plate was incubated at 37° C., 5% CO2 for 3-5 days. The en bloc tissues were then subjected to single 1 cell isolation and analysis as described.” left out"}, "NSCLC cancer cells": {"tested_on": "NSCLC cancer cells", "experiment": "en bloc NSCLC culture: cancer cell viability by PI-staining and FACS", "assay_type": "cell-based, human", "conditions": "PD-1 antibody alone, 5 days", "experimental": "Single cell suspensions were then obtained by mechanical disruption. The tumor cells were fixed and permeabilized, and were stained with CK7 antibodies and non-tumor epithelial cells were stained with EP4 antibodies. The cells were labeled with PI and percentage of PI positive cells were determined by FACS analysis.\nAs TME has been implicated in ICI resistance, it was next shown that reversal of immune suppression at NSCLC-TME increased efficacy of PD-1 antibodies. Specifically, en block NSCLC or control nLung tissues were treated with PD-1 or control antibodies, and co-cultured with autologous TAMs transfected with Hom-1 or control GFP. The effects of co-culturing were determined by FACS analysis of cancer or normal epithelial cell viability.\nTumor tissue were washed with 1×PBS buffer plus antibiotics and then cut into 0.5 cm pieces. Tissues were cultured in 2 mL of RPMI 1640 medium, supplemented with 2-10% FBS (Sigma) and 1% antibiotic-antimycotic solution (Gibco) in 24-well plate (Corning). […]\nSingle cell suspensions generated from en bloc tissue culture were washed with FACS staining solution (PBS plus 2% FBS), fixed and permeabilized (Invitrogen) and then stained with Ber-EP4 antibodies for normal epithelial cells and CK7, CK19 and CK20 for cancer cells for 30 minutes on ice. […] Cell viability were then analyzed with a flow cytometry."}}, "note": "Entries after “also recorded” stand apart in the source; their conditions may differ.", "data": [{"compound": "Nc1ccn([C@@H]2O[C@H](CO)[C@@H](O)C2(F)F)c(=O)n1", "note": "[Gemcitabine]", "values": [{"measurement": "tumoricidal effects promoted by Hom-1-TAMs", "setting": "PDAC", "value": "promoted"}]}, {"compound": "CC(=O)O[C@H]1C(=O)[C@@]2(C)[C@H]([C@H](OC(=O)c3ccccc3)[C@]3(O)C[C@H](OC(=O)[C@H](O)[C@@H](NC(=O)c4ccccc4)c4ccccc4)C(C)=C1C3(C)C)[C@]1(OC(C)=O)CO[C@@H]1C[C@@H]2O", "note": "[Taxol]", "values": [{"measurement": "tumoricidal effects promoted by Hom-1-TAMs", "setting": "ovarian cancer", "value": "promoted"}, {"measurement": "tumoricidal effects promoted by Hom-1-TAMs", "setting": "stomach cancer", "value": "promoted"}]}, {"compound": "Pembrolizumab [PD-1 antibody]", "values": [{"measurement": "inhibition of tumorigenesis", "setting": "primary human NSCLC", "value": "modest inhibition of tumorigenesis"}, {"measurement": "phenotypical changes of Treg cells and TAMs", "setting": "[1]", "value": "no significant phenotypical changes of the Treg cells and TAMs"}, {"measurement": "expression of Hom-1 in TAMs", "setting": "[1]; qRT-PCR", "value": "did not alter the expression of Hom-1 in TAMs"}, {"measurement": "CD8 T cell activation (expression and secretion of IL-2 and IFN-γ)", "setting": "CD8 T cells in NSCLC-TME; 1 μg/mL Pembrolizumab vs human IgG4, 24 or 48 hours", "value": "activates CD8 T cells in TME; also recorded: activates CD8^+ CTL"}, {"measurement": "dosage dependence of PD-1 antibody effect on CD8 T cell activation", "setting": "CD8 T cells in NSCLC-TME; various concentrations, 48 hours, ELISA", "value": "dosage dependent"}, {"measurement": "PI-staining of tumor cells (tumoricidal effect)", "setting": "NSCLC cancer cells", "value": "modest tumoricidal effects on cancer cells"}, {"measurement": "PI-staining of tumor cells (tumoricidal effect)", "setting": "NSCLC cancer cells; listed as anti-PD-1 antibodies", "value": "modest increase of PI-staining of tumor cells"}]}]}
